From ChEMBL document CHEMBL6178010, “XPO1-Targeting Selective Inhibitors of Transcriptional Activation Suppress Graft-versus-Host Disease” (J Med Chem, 2025)
The source made the active and inactive calls. No cut-off for these calls is given here.

Columns and labels:
[1] = Drug exposure in mouse administered intraperitoneally; type: ADME; conditions: in vivo, ip
Mus musculus [2] = assay: Suppression of T-cell activation in irradiated BALB/c mouse transplanted with bone marrow/splenic T-cells from C57BL/6 mouse assessed as downregulation of IFNG in host spleen at 10 mg/kg, ip administered daily for 7 days by RT-qPCR analysis; type: functional, organism-based; conditions: time 7.0 day
Mus musculus [3] = assay: Anti-inflammatory activity in irradiated BALB/c mouse transplanted with bone marrow/splenic T-cells from C57BL/6 mouse assessed as increase in CD3 positive CD4 positive T cells in host spleen at 1 to 10 mg/kg, ip administered for 7 days by flow cytometry analysis; type: functional, organism-based; conditions: dose 1-10 mg/kg, time 7.0 day
[4] = Metabolic stability in mouse liver microsome assessed as intrinsic clearance; type: ADME; conditions: liver microsomes, read-out: CLH
Mus musculus [5] = assay: Anti-inflammatory activity in irradiated BALB/c mouse transplanted with bone marrow/splenic T-cells from C57BL/6 mouse assessed as suppression of CD3 positive T-cell infiltration in host liver at 10 mg/kg, ip qd administered daily for 7 days by IHC analysis; type: functional, organism-based; conditions: time 7.0 day
Mus musculus [6] = assay: Anti-inflammatory activity in irradiated BALB/c mouse transplanted with bone marrow/splenic T-cells from C57BL/6 mouse assessed as healthy appearance of animal at 1 to 10 mg/kg, ip administered for 7 days; type: functional, organism-based; conditions: dose 1-10 mg/kg, time 7.0 day
Exportin-1 [7] = target: T1, Exportin-1 (Homo sapiens, UniProt O14980); assay: Inhibition of selinexor-alkyne binding to XPO1 at Cys528 in human Jurkat cells up to 300 nM pretreated for 1 hr followed by addition of selinexor-alkyne measured after 1 hr by In-gel fluorescence analysis; type: cell-based; conditions: time 2.0 hrs
T1 sequence (O14980 whole entry): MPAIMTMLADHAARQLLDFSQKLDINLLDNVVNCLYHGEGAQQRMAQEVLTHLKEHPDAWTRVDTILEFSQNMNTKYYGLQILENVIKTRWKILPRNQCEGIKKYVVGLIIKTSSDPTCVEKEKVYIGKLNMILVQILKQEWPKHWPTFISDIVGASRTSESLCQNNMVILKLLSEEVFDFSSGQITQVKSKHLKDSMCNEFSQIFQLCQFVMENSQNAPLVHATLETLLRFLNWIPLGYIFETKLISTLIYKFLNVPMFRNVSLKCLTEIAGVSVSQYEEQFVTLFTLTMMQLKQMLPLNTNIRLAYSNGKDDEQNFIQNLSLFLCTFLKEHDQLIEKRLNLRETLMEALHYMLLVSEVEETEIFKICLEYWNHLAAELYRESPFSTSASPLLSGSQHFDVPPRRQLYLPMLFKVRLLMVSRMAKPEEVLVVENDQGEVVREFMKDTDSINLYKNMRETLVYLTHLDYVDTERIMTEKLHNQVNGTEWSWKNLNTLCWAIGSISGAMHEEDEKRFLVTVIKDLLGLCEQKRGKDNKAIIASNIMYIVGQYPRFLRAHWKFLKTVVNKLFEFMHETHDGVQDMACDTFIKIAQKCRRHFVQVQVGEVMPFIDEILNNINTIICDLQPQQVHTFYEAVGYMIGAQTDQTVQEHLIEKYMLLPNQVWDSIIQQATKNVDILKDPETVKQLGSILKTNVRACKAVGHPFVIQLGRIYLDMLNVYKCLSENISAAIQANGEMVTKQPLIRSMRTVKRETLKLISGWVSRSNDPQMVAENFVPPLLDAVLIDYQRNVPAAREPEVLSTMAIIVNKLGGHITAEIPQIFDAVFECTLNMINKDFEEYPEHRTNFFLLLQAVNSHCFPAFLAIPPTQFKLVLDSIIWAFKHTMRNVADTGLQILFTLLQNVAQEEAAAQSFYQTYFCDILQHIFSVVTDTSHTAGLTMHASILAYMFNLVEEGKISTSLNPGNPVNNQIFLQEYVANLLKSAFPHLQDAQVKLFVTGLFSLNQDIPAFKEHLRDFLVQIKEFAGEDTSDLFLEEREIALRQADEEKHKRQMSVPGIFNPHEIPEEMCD

Mus musculus [8] = assay: Anti-inflammatory activity in irradiated BALB/c mouse transplanted with bone marrow/splenic T-cells from C57BL/6 mouse assessed as decrease in CD3 positive CD8 positive T cells in host spleen at 1 to 10 mg/kg, ip administered for 7 days by flow cytometry analysis; type: functional, organism-based; conditions: dose 1-10 mg/kg, time 7.0 day
Jurkat [9] = assay: Downregulation of IL-2 mRNA level in PMA/ionomycin-activated human Jurkat cells expressing XPO1 C528S mutant at 200 nM incubated for 6 hrs by RT-qPCR analysis; type: functional, cell-based
[10] = Toxicity in irradiated BALB/c mouse transplanted with bone marrow/splenic T-cells from C57BL/6 mouse assessed as drug tolerance at 3 mg/kg, ip administered daily for 21 days; type: organism-based; conditions: in vivo, 504 h, time 21 day
Jurkat [11] = assay: Cytotoxicity against human Jurkat cells assessed as suppression of cell viability incubated for 24 hrs by CellTiter-Glo assay; type: functional, cell-based
XPO1 = assay: Selectivity ratio of EC50 for cytotoxicity against human Jurkat cells assessed as suppression of cell viability to EC50 for inhibition of XPO1 in PMA/ionomycin-activated human Jurkat cells expressing IL-2 promoter reporter gene assessed as suppression of IL-2 transcriptional activity; type: toxicity, cell-based; conditions: read-out: Ratio EC50
Mus musculus [12] = assay: Anti-inflammatory activity in irradiated BALB/c mouse transplanted with bone marrow/splenic T-cells from C57BL/6 mouse assessed as improvement in animal survival at 3 mg/kg, ip administered daily for 21 days; type: functional, organism-based; conditions: time 21.0 day
[13] = Toxicity in mouse assessed as neutropenia at 10 mg/kg, ip administered daily for 5 days by CBC analysis; type: organism-based; conditions: in vivo, 120 h, time 5 day
[14] = Toxicity in mouse assessed as leukopenia at 10 mg/kg, ip administered daily for 5 days by CBC analysis; type: organism-based; conditions: in vivo, 120 h, time 5 day
Mus musculus [15] = assay: Anti-inflammatory activity in irradiated BALB/c mouse transplanted with bone marrow/splenic T-cells from C57BL/6 mouse assessed as suppression of IFNG mRNA level in host spleen administered as ip dose for 7 days by RT-qPCR analysis; type: functional, organism-based; conditions: dose 10-100 mg/kg, time 7.0 day
[16] = Metabolic stability in mouse liver microsome assessed as half life; type: ADME; conditions: liver microsomes
Jurkat [17] = assay: Cytotoxicity against human Jurkat cells expressing XPO1 C528S mutant assessed as suppression of cell viability up to 1000 nM incubated for 24 hrs by CellTiter-Glo assay; type: functional, cell-based
Mus musculus [18] = assay: Anti-inflammatory activity in irradiated BALB/c mouse transplanted with bone marrow/splenic T-cells from C57BL/6 mouse assessed as suppression of CSF2 mRNA level in host spleen administered as ip dose for 7 days by RT-qPCR analysis; type: functional, organism-based; conditions: dose 10-100 mg/kg, time 7.0 day
Mus musculus [19] = assay: Suppression of T-cell activation in irradiated BALB/c mouse transplanted with bone marrow/splenic T-cells from C57BL/6 mouse assessed as downregulation of CSF2 in host spleen at 10 mg/kg, ip administered daily for 7 days by RT-qPCR analysis; type: functional, organism-based; conditions: time 7.0 day
Mus musculus [20] = assay: Anti-inflammatory activity in irradiated BALB/c mouse transplanted with bone marrow/splenic T-cells from C57BL/6 mouse assessed as suppression of CCL3 mRNA level in host spleen administered as ip dose for 7 days by RT-qPCR analysis; type: functional, organism-based; conditions: dose 10-100 mg/kg, time 7.0 day
Exportin-1 [21] = target: T1, Exportin-1; assay: Inhibition of XPO1 in PMA/ionomycin-activated human Jurkat cells expressing IL-2 promoter reporter gene assessed as suppression of IL-2 transcriptional activity incubated for 6 hrs by Bright-Glo Luciferase assay; type: cell-based
Mus musculus [22] = assay: Anti-inflammatory activity in irradiated BALB/c mouse transplanted with bone marrow/splenic T-cells from C57BL/6 mouse assessed as suppression of TNF mRNA level in host spleen administered as ip dose for 7 days by RT-qPCR analysis; type: functional, organism-based; conditions: dose 10-100 mg/kg, time 7.0 day
Mus musculus [23] = assay: Anti-inflammatory activity in irradiated BALB/c mouse transplanted with bone marrow/splenic T-cells from C57BL/6 mouse assessed as active behaviour of animal at 1 to 10 mg/kg, ip administered for 7 days; type: functional, organism-based; conditions: dose 1-10 mg/kg, time 7.0 day

- Drug uptake [1]: Active
- microsomal CLint [4]: < 23 µL/min/mg
- inhibition (Exportin-1 [7]): Active
- half-life [16]: > 1 h
- EC50 (Exportin-1 [21]): 31 nM
Compound: CC1=CC(=O)N(Nc2nc(C(F)(F)F)nn3cccc23)C1=O
- Activity (Mus musculus [2]): Active; Compound Showed Stronger Effect Than Sp100030
- Activity (Mus musculus [3]): Active
- Activity (Mus musculus [5]): Active
- Activity (Mus musculus [6]): Active
- Activity (Mus musculus [8]): Active
- Activity (Jurkat [9]): inactive
- Activity [10]: Non-toxic
- EC50 (Jurkat [11]): 270 nM
- selectivity ratio (XPO1): 8.7
- Activity (Mus musculus [12]): Active
- Activity [13]: Non-toxic
- Activity [14]: Non-toxic
- Activity (Mus musculus [15]): Dose-dependent-effect
- Activity (Jurkat [17]): inactive
- Activity (Mus musculus [18]): Dose-dependent-effect
- Activity (Mus musculus [19]): Active; Compound Showed Stronger Effect Than Sp100030
- Activity (Mus musculus [20]): Dose-dependent-effect
- Activity (Mus musculus [22]): Dose-dependent-effect
- Activity (Mus musculus [23]): Active
